From a melting point compilation (Tetko et al.; mined from patent text by program, amines drawn as free bases though some values may be those of a salt) come the findings set out here.

Some results are limits rather than exact numbers.

As a reminder, the melting point is the temperature, or range, at which the solid turns liquid.

`CC(=O)NC1(c2ccc(CN3CCN(c4ccccc4)CC3)cc2)CC1` yielded a melting point of 129 to 140 °C.
The result for `CCOC(=O)c1c(-c2cccc(C)c2)oc(Cl)c(Cl)c1=O` reads 113 °C.
The result for `C=CCN1CC(C(=O)Nc2cc(C)nc(C)n2)CC2c3cccc4[nH]cc(c34)CC21` (stereo not drawn) reads 182 to 186 °C; that for `CCCCC1OC(=O)c2cc(NC(=O)OCC)ccc21` (stereo not drawn), 125 to 126 °C.
Regarding `CC1Oc2ccc(CN3CCN(c4ccc(C#N)cc4)CC3)cc2NC1=O` (stereo not drawn), the melting point lay in the range of 266 to 268 °C.
The same measure for `COc1ccc(S(=O)(=O)N(C)C)c([N+](=O)[O-])c1`: 90 to 92 °C; for `CCOC(=O)CCc1cc(-c2ccc(Cl)cc2)n(-c2ccc(OC)cc2)n1`: 80 to 81 °C; for `c1ccc(COc2ccc3c(c2)N=C(NCc2cccnc2)c2ccccc2N3)cc1`: 196 to 197 °C.
The same measure for `Cc1nc(-c2cn(CC3CC3)nn2)sc1C(=O)NCc1cccnc1`: 140 to 141 °C.
Take `CC(C)(S)CN1CCN(Cc2ccc(O)cc2)CC1`: the melting point was 81 °C.
The same measure for `Nc1cc(=O)n(Cc2ccc(F)cc2Cl)[nH]1`: 192 °C; for `CC(C)O[Si](C)(C)C[C@](O)(c1ccc(F)cc1F)[C@@H](C)n1ncn(-c2ccc(OCC(F)(F)C(F)F)cc2)c1=O`: 125 to 126 °C; for `CCN(CC)C(=O)CN1C(=O)C(NC(=O)Nc2cccc(OC)c2)N=C(c2ccccc2)c2ccccc21` (stereo not drawn): 222 to 224 °C.
The result for `CCc1noc(-c2ncc3[nH]c4cccc(Oc5ccc(Cl)cc5)c4c3c2COC)n1` reads 170 °C; that for `COC(=O)CCc1cnoc1-c1ccc([N+](=O)[O-])cc1`, 118 to 119 °C; that for `CC(C)CCCC(C)C1CCC2=C3C(=O)CC4C(C)(C)C(OC(=O)c5ccccc5)CCC4(C)C3CCC21C` (stereo not drawn), 189 to 190 °C.
Take `COc1ccc(-c2cc3ccccc3[nH]2)cc1NC(N)=S`: the melting point fell in the range of 188 to 191 °C.
Turning to `COc1ccc(/C=C/c2nc3cc([N+](=O)[O-])ccc3[nH]2)cc1OC`, the melting point was in the range of 223 to 225 °C.
The same measure for `CCOC(=O)C=CC(=O)c1ccc(Oc2ccccc2)cc1`: 50 to 53.5 °C.
The result for `Nc1ccc(-c2noc(-c3cnn4c(C(F)F)cc(-c5ccc(C(F)(F)F)c(F)c5)nc34)n2)cn1` reads 242 °C.
The result for `CN1C(=O)CN(N)C(c2ccccc2)c2cc(Cl)ccc21` (stereo not drawn) reads 147 to 148 °C.
For the molecule `C[C@]1(COc2ccc3nc(N4CCN(Cc5ccc(OC(F)(F)F)cc5)CC4)sc3c2)Cn2cc([N+](=O)[O-])nc2O1`, the melting point lay within 206 to 207 °C.
Regarding `CCN1C(=O)CCCc2cc(Nc3ncc(Cl)c(Nc4cc(Cl)ccc4OC)n3)c(OC)cc21`, the melting point was in the range of 194 to 196 °C.
The result for `CCCN1NCc2c(C3C(=O)Nc4ccc(C(F)(F)F)cc43)ncnc21` (stereo not drawn) reads 293 to 295 °C.
The same measure for `CCCc1c(OCCOCCOCCOc2c(C(C)=O)ccc(OCC(=O)O)c2CCC)ccc(C(C)=O)c1O`: 74 to 77 °C; for `CC(=O)OC1CSC(Oc2cncc(-c3cccnc3Cl)c2)C(OC(C)=O)C1OC(C)=O` (stereo not drawn): 162 °C.
The same measure for `O=C(O)CC1(CCCCCCCCCCC2(C(=O)O)CC2)CC1`: 71.9 to 74.3 °C; for `O=C(O)CC(CCCc1ccc(O)cc1)CC(=O)O`: 107 to 108 °C.
Turning to `COc1ccc(C2(C#Cc3ccc(NC(C)=O)cc3)CCC(=O)CC2)cc1OC1CCCC1`, the melting point was in the range of 79 to 80 °C.
`O=C1CC2CC(n3c(=O)[nH]c4ccccc43)CC2C1` (stereo not drawn) showed a melting point of 246 to 248 °C.
The same measure for `Cc1ccc(S(=O)(=O)OC2CCc3c(c4ccccc4n3C)C2)cc1` (stereo not drawn): 104 to 106 °C; for `Cc1cccc2c1CCNC2=O`: 141 to 143 °C; for `CC(C)c1ccc2c(CCCCNS(=O)(=O)c3ccccc3)cc(C(=O)O)c-2cc1`: 167 to 168 °C.
The molecule `CCOCCOC(=O)C1=C(C)NC(CO)=C(C(=O)OCC)C1c1cccc([N+](=O)[O-])c1` (stereo not drawn) came in with a melting point of 99 to 100 °C.
Regarding `CN(C)C=Cc1ncc([N+](=O)[O-])n1CCc1ccncc1`, the melting point fell in the range of 190 to 191 °C.
The same measure for `c1ccc(NCCN2CCN(c3cccc4[nH]ccc34)CC2)nc1`: 153 to 160 °C; for `CN1CCC(c2c[nH]c3ccc(OS(=O)(=O)c4ccc(F)c(F)c4F)cc23)CC1`: 160 to 162 °C.
The result for `O=c1[nH]c(=O)n(COC(CO)CO)cc1Cc1cccc(OCc2ccccc2)c1` reads 113 °C.
The same measure for `CCCCCCCCCCC[C@@H](C[C@@H]1OC(=O)[C@H]1CCCCCC)OC(=O)[C@H](CC(C)C)NC=O`: 44 to 45 °C; for `COc1nc(N)nc(-c2ccc(S(C)=O)cc2)c1-c1ccc(=O)n(C(C)C)n1` (stereo not drawn): 127 to 130 °C; for `Cc1ncc([N+](=O)[O-])n1CCOS(C)(=O)=O`: 152 to 153 °C.
Turning to `COc1ccccc1-c1ccc(C(=O)O)cc1`, the melting point was 250 to 253 °C.
The same measure for `CNC(=O)[C@H](C)C[C@H](O)[C@H](CC1CCCCC1)NC(=O)[C@H](Cc1cscn1)NC(=O)OC(C)(C)C`: 158 to 160 °C; for `Nc1nc(-c2cc(Cl)ccc2Cl)nc(N2CCCC(O)C2)n1` (stereo not drawn): 178 to 180 °C.
The molecule `O=[N+]([O-])c1cccc(OCCn2ccnc2)c1` registered a melting point of 52.5 to 55.5 °C.
In the case of `CS(=O)(=O)c1ccc(-n2cccc2-c2ccc(Cl)cc2)cc1`, the melting point lay within 203 to 205 °C.
The result for `CCN1c2ncc(CCc3cccnc3)cc2C(=O)N(C)c2cccnc21` reads 79 to 80 °C; that for `O=C(CCCl)c1cc2c3c(c1)CCN3C(=O)CC2`, 154 to 155 °C.
The result for `CC1(C)CC(OC(=O)c2ccccc2)CC(C)(C)N1OP(=O)(c1ccccc1)c1ccccc1` reads 169 to 173 °C; that for `Oc1cccc(O)c1Br`, 86 to 88 °C; that for `Oc1ccc(Nc2nc(Cl)nc(Cl)n2)cc1Cl`, 180 °C.
`Clc1ccc(C2CCN(Cc3cncc(-c4ccccc4)c3)CC2)cc1` came in with a melting point of 142 to 143 °C.
`CCCCc1nc(Sc2ccccc2)c(C(=O)OCC)[nH]1` yielded a melting point of 74 °C.
On to `CCN=C(NC#N)NCCSCc1ncccc1Br`, for which the melting point lay within 123 to 124 °C.
The result for `CCCCn1c2ccccc2c2cc(C(=O)O)ncc21` reads 182 to 184 °C; that for `CC(C)[C@@H]1COC(=O)N1C(=O)CCc1ccccc1`, 62 °C.
`Clc1ccc2nc(-c3cccs3)c(I)n2n1`: the melting point is 205 to 209 °C.
The result for `CCC(=O)N1CCN(C(=O)COC2c3ccccc3C(=O)N2c2ccc3ccc(OC)nc3n2)CC1` (stereo not drawn) reads 160 °C; that for `O=C(c1nc(Cl)c(Cl)[nH]1)N1CCOCC1`, 215 °C; that for `CC(C)C[C@H](NC(=O)OCc1ccccc1)C(=O)N[C@@H](Cc1ccccc1)C(=O)CS`, 171 °C.
The same measure for `COc1ccc(C2(O)C(=O)N(Cc3ccc(Cl)cc3)c3ccccc32)cn1` (stereo not drawn): 182 to 184 °C; for `CCOC(=O)c1cn(CC)c2nc(OC)c(F)cc2c1=O`: 181 to 182 °C.
Molecule `CC(=O)OC1CSC(Oc2cncc(-c3ccnc(Cl)c3)c2)C(OC(C)=O)C1OC(C)=O` (stereo not drawn) displayed a melting point of 105 to 108 °C.
The molecule `CC=C(C)C1CCC2C3CC=C4CC(O)CCC4(C)C3CCC12C` (stereo not drawn) had a melting point of 140 to 145 °C.
The result for `O=C1Nc2ccccc2Oc2c1[nH]c1ccccc21` reads 233 to 234 °C.
The result for `Clc1ccnc2[nH]c3ccc(Br)cc3c12` reads greater than 220 °C; that for `O=Cc1ccc(OCc2cccc(Cl)c2)cc1`, 51 to 54 °C.
`Cc1cc(-c2nc3ccccc3c(=O)n2-c2ccc(F)cc2)cc(C)c1OCCO` showed a melting point of 95 to 97 °C.
The result for `CCCCc1ncc(/C=C2/C(=O)NC(=O)N2C)n1Cc1ccc(C(=O)O)cc1` reads 248 to 250 °C.
Regarding `CC(C)n1nc(-c2sc(C(=O)N3CCCC3)nc2-c2ccccc2)ccc1=O`, the melting point fell in the range of 169 to 170 °C.
The result for `Cc1cc(Cl)nc(Nc2ccccc2[N+](=O)[O-])n1` reads 175 °C.
On to `CCNC1(c2ccccc2Cl)C(=O)N(Cc2ccc(C(=O)NC(C)(C)C)cc2)c2ccc(Cl)cc21` (stereo not drawn), for which the melting point fell in the range of 190 to 195 °C.
Turning to `CCOC(=O)c1cnc2c3ccc(OC)cc3ccn2c1=O`, the melting point was 212 °C.
The same measure for `CC(=O)NCCC1Cc2c(C)c(OCc3ccccc3)c(C)c(C)c2O1` (racemic): 138 to 139 °C; for `CCOP(=O)(OCC)Oc1cc(C(F)(F)F)nc(N(C)C)n1`: 22 to 24 °C; for `N#Cc1ccc(-c2nc(C(=O)Nc3nccs3)c(-c3ccc(F)cc3)[nH]2)cc1`: greater than 250 °C.
The same measure for `Cc1nc(N2CCCC(Cc3cc(F)ccc3F)C2=O)sc1C(=O)NCc1ccccc1` (stereo not drawn): 144 to 145 °C; for `CCOC(=O)c1ccc(/C=C(\C)c2ccc(OC)c(C3(C)CCCCC3)c2)cc1`: 60 to 62 °C.
In turn, `COc1cc(-c2ccc(O)c(C3(C)CCCCC3)c2)cc(CC2SC(N3CCCC3)=NC2=O)c1O` (stereo not drawn) yielded a melting point of 204 to 206 °C.
Turning to `O=C(O)c1ccc(NCC(O)C(O)C(O)C(O)CO)cc1` (stereo not drawn), the melting point fell in the range of 111 to 112 °C.
The result for `CCOC(=O)C(NC(=O)OC(C)(C)C)c1csc(NC(=O)OCC(Cl)(Cl)Cl)n1` (stereo not drawn) reads 94 to 95 °C.
Molecule `CC(C)(C)NS(=O)(=O)c1cccc2c1C(O)CCC2` (stereo not drawn) gave a melting point of 100 to 111 °C.
Regarding `Cc1cccc(C)c1CNc1cc(C(=O)N(C)C)cc2c1nc(CO)n2C`, the melting point was in the range of 171 to 172 °C.
Turning to `COC(=O)C(C)c1ccc2cc(OC(=O)CO[N+](=O)[O-])ccc2c1` (stereo not drawn), the melting point was in the range of 72 to 74 °C.
As for `COc1cc(OC)cc(C(=CC#N)c2ccc(OC)c(F)c2)c1`, the melting point lay within 91 to 93 °C.
In turn, `Fc1ccc(Cl)c(-c2c(Cl)nc3ncnn3c2Cl)c1` displayed a melting point of 137 °C.
In turn, `Nc1nc(Cl)cc(Oc2ccc3c(c2)CCCCN3C(=O)Nc2cccc(C(F)(F)F)c2)n1` showed a melting point of 175 °C.
The same measure for `CS(=O)(=O)c1ccc(-c2cc(CO)nn2Cc2ccccc2)cc1`: 155 °C.
